Source: publication PMC10384246, “Discovery of New Uracil and Thiouracil Derivatives as Potential HDAC Inhibitors” (Pharmaceuticals, 2023)

Experiments:
[1] = tested on: MCF-7 (human breast cancer cell line); experiment: MTT anti-proliferative assay, MCF-7; format: cell-based; conditions: MCF7, MCF-7, mean of at least three experiments, read-out: Cytotoxicity IC50 MCF-7
Protocol: (§1) Sorafenib was used as a reference drug.
(§2) Anti-proliferative activity activities were tested using MTT assay as described in Supplementary Materials. […]
(§3) S2.1. In vitro anti-proliferative activities
(§4) The in vitro antiproliferative activities of all the synthesized compounds against three human tumor cell lines namely, MCF-7 (human breast cancer cell line), HepG2 (human liver […]
(§5) in the literature, using MTT assay protocol. Sorafenib was used in this test as a positive control.
(§6) The anti-proliferative activity was assessed quantitatively as follows.
(§7) Human cancer cell lines were seeded in 96-well plates at a density of 3-8 × 10^3 cells/well.
(§8) Next, the cells were incubated for 12 h in a 5% CO2 incubator at 37 °C. Then, for each well, the growth medium was exchanged with 0.1 ml of fresh medium containing graded concentrations of the test compounds or equal DMSO. Then 10 μl MTT solution ([…]) was added to each well, and the cells were incubated for additional 4 h. The crystals of MTT-formazan were dissolved in 100 μl of DMSO; the absorbance of each well was measured at 490 nm using an automatic ELISA reader system (TECAN, CHE). The IC50 values were calculated using the nonlinear regression fitting models (Graph Pad, Prism Version 5). The data represented the mean of three independent experiments in triplicate and were expressed as means ± SD. The IC50 value was […]
(§9) defined as the concentration at which 50% of the cells could survive. […]

[2] = tested on: HepG2 (human liver carcinoma cell line); experiment: MTT anti-proliferative assay, HepG2; format: cell-based; conditions: HepG2, mean of at least three experiments, read-out: Cytotoxicity IC50 HepG-2
Protocol: as §1, §2, §3, §4, §5, §6, §7, §8, §9

[3] = tested on: colorectal carcinoma (HCT-116); experiment: MTT anti-proliferative assay, HCT-116; format: cell-based; conditions: Homo sapiens, HCT-116, read-out: Cytotoxicity IC50 HCT-116
Protocol: as §1, §2, §3, §4, §5, §6, §7, §8, §9

Structure (SMILES)	IC50 [1]	IC50 [2]	IC50 [3]	melting point
CCn1c(=S)[nH]c(=O)c2c(-c3ccc(OC)cc3)c3c(=O)[nH]c(=S)n(CC)c3nc21 [Compound 7b, 1,9-Diethyl-5-(4-methoxyphenyl)-2,8-dithioxo-2,3,8,9-tetrahydropyrido[2,3-d:6,5-d′]dipyrimidine-4,6(1H,7H)-dione]	871 ± 3.2 µM	173 ± 4.5 µM	301 ± 3.4 µM	221 °C
CCCn1c(N)c(Cc2c(N)n(CCC)c(=O)[nH]c2=O)c(=O)[nH]c1=O [Compound 5h, 5,5′-Methylenebis(6-amino-1-propylpyrimidine-2,4(1H,3H)-dione)]	88 ± 2.5 µM	52 ± 3.2 µM	91 ± 1.9 µM	
CCn1c(=S)[nH]c(=O)c2c(-c3ccc(Cl)cc3)c3c(=O)[nH]c(=S)n(CC)c3nc21 [Compound 7a, 5-(4-Chlorophenyl)-1,9-diethyl-2,8-dithioxo-2,3,8,9-tetrahydropyrido[2,3-d:6,5-d′]dipyrimidine-4,6(1H,7H)-dione]	472 ± 3.2 µM	189 ± 4.8 µM	361 ± 1.9 µM	224 to 225 °C
CCn1c(N)c(C(c2ccc(Cl)cc2Cl)c2c(N)n(CC)c(=S)[nH]c2=O)c(=O)[nH]c1=S [Compound 5d, 5,5′-((2,4-Dichlorophenyl)methylene)bis(6-amino-1-ethyl-2-thioxo-2,3-dihydropyrimidin-4(1H)-one)]	62 ± 2.1 µM	40 ± 2.7 µM	281 ± 2.1 µM	272 to 273 °C
CCn1c(N)c(C(c2ccc(OC)cc2)c2c(N)n(CC)c(=S)[nH]c2=O)c(=O)[nH]c1=S [Compound 5e, 5,5′-((4-Methoxyphenyl)methylene)bis(6-amino-1-ethyl-2-thioxo-2,3-dihydropyrimidin-4(1H)-one)]	60 ± 0.49 µM	42 ± 2 µM	90 ± 3 µM	260 to 261 °C
CCCn1c2c(c(=O)[nH]c1=O)C(c1ccc(OC)cc1)c1c(n(CCC)c(=O)[nH]c1=O)N2 [Compound 6c, 5-(4-Methoxyphenyl)-1,9-dipropyl-5,10-dihydropyrido[2,3-d:6,5-d′]dipyrimidine-2,4,6,8(1H,3H,7H,9H)-tetraone]	435 ± 4.3 µM	114 ± 2.2 µM	466 ± 4.6 µM	180 to 181 °C
CCn1c2c(c(=O)[nH]c1=S)C(c1ccc([N+](=O)[O-])cc1)c1c(n(CC)c(=S)[nH]c1=O)N2 [Compound 6b, 1,9-Diethyl-5-(4-nitrophenyl)-2,8-dithioxo-2,3,5,8,9,10-hexahydropyrido[2,3-d:6,5-d′]dipyrimidine-4,6(1H,7H)-dione]	577 ± 20 µM	184 ± 3.7 µM	299 ± 2 µM	251 to 252 °C
CCn1c(N)c(C(c2cccs2)c2c(N)n(CC)c(=S)[nH]c2=O)c(=O)[nH]c1=S [Compound 5g, 5,5′-(Thiophen-2-ylmethylene)bis(6-amino-1-ethyl-2-thioxo-2,3-dihydropyrimidin-4(1H)-one)]	21 ± 2.2 µM	33 ± 3.8 µM	68 ± 1.8 µM	271 to 272 °C
CCCn1c(N)c(C(c2ccc(OC)cc2)c2c(N)n(CCC)c(=O)[nH]c2=O)c(=O)[nH]c1=O [Compound 5l, 5,5′-((4-Methoxyphenyl)methylene)bis(6-amino-1-propylpyrimidine-2,4(1H,3H)-dione)]	381 ± 1.5 µM	31 ± 2 µM	83 ± 1.9 µM	289 to 290 °C
CNC(=O)c1cc(Oc2ccc(NC(=O)Nc3ccc(Cl)c(C(F)(F)F)c3)cc2)ccn1 [Sorafenib, reference compound]	141 ± 3 µM	17 ± 2.3 µM	177 ± 0.9 µM	
CCCn1c2c(c(=O)[nH]c1=O)Cc1c(n(CCC)c(=O)[nH]c1=O)N2 [Compound 6d, 1,9-Dipropyl-5,10-dihydropyrido[2,3-d:6,5-d′]dipyrimidine-2,4,6,8 (1H,3H,7H,9H)-tetraone]	413 ± 1.3 µM	168 ± 1.5 µM	361 ± 2 µM	
